# Measurements from patent US8491891B2, “Human beta-glucuronidase mutants with elevated enzymatic activity under physiological conditions and method for identifying such” (Academia Sinica, priority 2008, dated 2013).
# Read-outs that look alike come from different tables or passages of the source. Marks after values point to notes of the source that are not given here.
# Columns and labels:
# [1] = test system: EJ/mβG cells; test: Sensitivity of EJ/mβG cells to CPT-11, SN-38, SN-38G (3H-thymidine incorporation); conditions: for IC50: read-out: IC50 (cytotoxicity), EJ/mβG cells
# Protocol: EJ human bladder carcinoma cells were cultured in RPMI medium supplemented with 10% bovine calf serum in a humidified atmosphere of 5% CO2 in air at 37° C.
# (§1) Cell viability was examined by measuring ^3H-thymidine incorporation into cellular DNA after the cells were cultured for an additional 24 h in fresh medium.
# [2] = Intratumoral concentrations of CPT-11, SN-38 and SN-38G after CPT-11 treatment (SPE-HPLC)
# Protocol: Tumors were collected 2, 8 and 24 h after CPT treatment, immediately dispersed in ice-cold acidic methanol (methanol: water: perchloric acid=20:20:1), and homogenized 60 sec on an Ultraturax tissue homogenizer at 20,000 rpm. The samples were clarified by centrifugation at 15,000 g for 5 min at 4° C. Supernatants were diluted with 0.1 M KH2PO4 and then separated by SPE-HPLC on a μBondapack column with 27% acetonitrile in 0.1 M potassium phosphate buffer pH=2.6. […] These three analytes were quantified by comparison with standard curves generated with analyte concentrations ranging from 2.0 pg to 200 ng.
# [3] = test system: EJ human bladder carcinoma cells; test: Sensitivity of EJ cells to CPT-11, SN-38, SN-38G (3H-thymidine incorporation)
# Protocol: as §1
# [4] = Serum concentrations of CPT-11, SN-38 and SN-38G after CPT-11 administration; conditions: for Serum levels in mice bearing EJ versus EJ/mβG tumor: 2 h after CPT-11 administration; for Serum concentrations in mice bearing EJ versus EJ/mβG tumor: 8 h or 24 h after CPT-11 administration
# [5] = Enzymatic activity of purified position-545 single mutants at pH 7.0; assay type: biochemical; conditions: purified enzyme
# Source text: DNA plasmids were extracted from 12 individual cell clones and subjected to DNA sequencing to examine mutations in the genes encoding human β-glucuronidase variants. All human β-glucuronidase variants being examined had mutations at position 545 (50% T→A and 50% T→S). To determine the effect of amino acid substitutions at position 545 on enzyme activity, the single amino acid mutants T545A (E1-A), T545G (E1-G), T545S (E1-S) and T545Y (E1-Y) were generated and purified from the culture medium of stably transfected fibroblasts. […] Thus, the single amino acid substitution at position 545 affected human β-glucuronidase activity at neutral pH.
# [6] = Kinetic values (Km, kcat) of soluble recombinant human β-glucuronidase and variants; assay type: biochemical
# Protocol: Recombinant His-tagged wild-type human β-glucuronidase and its variants (soluble) were produced in and purified from stable 3T3 fibroblast lines, following the method described above also the method described in Wu et al., Biotechnol Appl Biochem 40:167-172 (2004).
# The pH-dependent enzyme activities of the above-mentioned recombinant human beta-glucuronidase and variants were measured in triplicate with 0.1 mM ELF97 β-D-glucuronide at 37° C. for 30 minutes at a defined pH ranging from 3-10 in a beta-glucuronidase reaction buffer (50 mM Bis-Tris, 50 mM triethanol amine, 100 mM acetic acid, 0.1% BSA). The reaction was quenched by adding an equal volume of a stop buffer (2 M Tris-HCl, 0.8 M sodium bicarbonate, pH 8). The fluorescence of ELF97 was measured in a Gemini EM microplate spectrofluorometer (Molecular Device, Sunnyvale, Calif.) at excitation/emission wavelengths of 355/555 nm. Kinetic values for human beta-glucuronidase substrate hydrolysis were determined by diluting ELF97 β-D-glucuronide (2 mM) in a pH 4.5 or pH 7.0 beta-glucuronidase reaction buffer 1:1 with defined concentrations of human beta-glucuronidase in 200 μl. Fluorescence was immediately measured under thermal control at 37° C. for 8-10 min. The measurement was repeated using the same amount of enzyme at different substrate concentrations in an optimal range. The acquired readings were converted to product concentration based on preestablished standard curves. Double reciprocal plots were used to determine Km and kcat. Kinetic assays were performed at least 3 times and mean values were calculated. The stability of recombinant human beta-glucuronidase variants was carried out by measuring their enzymatic activity at time 0 and again after incubating 5 μg purified enzymes in PBS (containing 0.5 mg/ml BSA) at 37° C. for 14 days. The enzymatic activities of the human beta-glucuronidase variants were measured in triplicate with 0.5 mM 4-methylumbelliferyl β-D-glucuronide at 37° C. for 15 minutes at pH 7.0 in β-glucuronidase reaction buffer. The reaction was terminated by adding an equal volume of a stop buffer (1 M glycine, 0.5 M sodium bicarbonate, pH 11) and the fluorescence was measured at excitation/emission wavelengths of 355/460 nm in a microplate spectrofluorometer.
# [7] = Relative activity of membrane-tethered human β-glucuronidase variants on 3T3 cells by flow cytometry (FL4/FL1); assay type: cell-based; conditions: membrane-tethered enzyme, pH 7.0, substrate ELF97 β-D-glucuronide
# Protocol: The 3T3 cell libraries mentioned above were screened by FACS analysis for cells that express human β-glucuronidase variants with elevated enzymatic activity. 10^7 3T3 cells expressing membrane-bound human β-glucuronidase variants were washed and suspended in 0.4 ml BSA/HBSS (5.4 mM KCl, 0.3 mM Na2HPO4, 0.4 mM KH2PO4, 4.2 mM NaHCO3, 1.3 mM CaCl2, 0.5 mM MgCl2, 0.6 mM MgSO4, 137 mM NaCl, 5.6 mM D-glucose, pH 7.4) containing 0.5% bovine serum albumin (BSA) and 20 μg/ml 7G8-FITC for 30 min at 4° C. Cells were then washed and incubated with 25, 50 or 100 μM ELF97 β-D-glucuronide at defined pH values in 50 mM Bis-Tris, 25 mM glucose, 85.6 mM NaCl, 5.4 mM KCl, 0.6 mM MgSO4, 1.3 mM CaCl2) at 37° C. for 10 min. The cells were washed with ice-cold 0.5% BSA/HBSS and suspended in 0.5% BSA/HBSS containing 5 μg/ml propidium iodide (Sigma). Cells were then sorted on a FACSVantage DiVa (Becton, Dickinson and Company, Franklin Lakes, N.J.) equipped with an Enterprise IIC argon laser for dual excitation at 488 and 351-364 nm. Dead cells (propidium iodide positive, high FL3 fluorescence) were gated out before 7G8-FITC immunofluorescence was detected at excitation/emission wavelengths of 488/515 nm (FL1) and ELF97 was detected at excitation/emission wavelengths of 351/530 nm (FL4). […] The sorted cells were cultured for 4-10 days for sequential rounds of cell sorting or RNA extraction. Flow cytometer data was analyzed using Flowjo (Tree star, Ashland, Oreg.).
# Independent 3T3 clones (5×10^7) in library EP2 mentioned above were immunofluorescence stained with 7G8-FITC and reacted with ELF97 β-D-glucuronide at pH 7.0. Sixteen individual cell clones were isolated after three rounds of sorting and the human β-glucuronidase genes were sequenced. […] Table 1 below lists amino acid substitutions in five exemplary variants and their relative enzymatic activities.
# [8] = 24 h after CPT-11 10 mg/kg i.v.
Molecule,IC50 ([1]; pH 6.6) [nM],IC50 ([1]; pH 7.4) [nM],Serum levels in mice bearing EJ versus EJ/mβG tumor [4],Serum concentrations in mice bearing EJ versus EJ/mβG tumor [4],"Km ([6]; pH 4.5, 37° C.) [µM]","kcat ([6]; pH 4.5, 37° C.) [s⁻¹]","Km ([6]; pH 7.0, 37° C.) [µM]","kcat ([6]; pH 7.0, 37° C.) [s⁻¹]",Relative activity (FL4/FL1 normalized to wild-type human β-glucuronidase) [7],also measured
CCc1c2c(nc3ccc(O)cc13)-c1cc3c(c(=O)n1C2)COC(=O)[C@]3(O)CC [SN-38],2,6,similar,no significant differences,–,–,–,–,–,"Intratumoral concentration, percent higher in EJ/mβG tumors as compared to EJ tumors ([2]; 2, 8 and 24 h): 65-130%; Difference EJ/mβG vs EJ (EJ values as 100%) ([2]; 2 h): 65.63* %; Concentration in EJ xenografts ([2]; 2 h after CPT-11 10 mg/kg i.v.): 43 ± 10.5 ng drug/g tumor; Concentration in EJ/mβG xenografts ([2]; 2 h after CPT-11 10 mg/kg i.v.): 71 ± 13 ng drug/g tumor; Difference EJ/mβG vs EJ (EJ values as 100%) ([2]; 8 h): 127.10* %; Concentration in EJ xenografts ([2]; 8 h after CPT-11 10 mg/kg i.v.): 7.5 ± 0.93 ng drug/g tumor; Concentration in EJ/mβG xenografts ([2]; 8 h after CPT-11 10 mg/kg i.v.): 17 ± 5.56 ng drug/g tumor; Difference EJ/mβG vs EJ (EJ values as 100%) ([2]; 24 h): 71.43* %; Concentration in EJ xenografts [2, 8]: 0.07 ± 0.02 ng drug/g tumor; Concentration in EJ/mβG xenografts [2, 8]: 0.12 ± 0.01 ng drug/g tumor; IC50 ([3]; read-out: IC50 (cytotoxicity), pH 6.6): 2 nM; IC50 ([3]; read-out: IC50 (cytotoxicity), pH 7.4): 6 nM"
SN-38G,32,190,similar,no significant differences,–,–,–,–,–,Sensitivity of EJ/mβG cells relative to EJ cells ([1]; EJ/mβG vs EJ cells): over 30 times; Cytotoxicity at the highest concentration investigated ([3]; 1000 nM): non-toxic
"E1-A: human β-glucuronidase single amino acid mutant T545A (protein, UniProt P08236 23-651, looked up, variant T545A) Beta-glucuronidase: LQGGMLYPQESPSRECKELDGLWSFRADFSDNRRRGFEEQWYRRPLWESGPTVDMPVPSSFNDISQDWRLRHFVGWVWYEREVILPERWTQDLRTRVVLRIGSAHSYAIVWVNGVDTLEHEGGYLPFEADISNLVQVGPLPSRLRITIAINNTLTPTTLPPGTIQYLTDTSKYPKGYFVQNTYFDFFNYAGLQRSVLLYTTPTTYIDDITVTTSVEQDSGLVNYQISVKGSNLFKLEVRLLDAENKVVANGTGTQGQLKVPGVSLWWPYLMHERPAYLYSLEVQLTAQTSLGPVSDFYTLPVGIRTVAVTKSQFLINGKPFYFHGVNKHEDADIRGKGFDWPLLVKDFNLLRWLGANAFRTSHYPYAEEVMQMCDRYGIVVIDECPGVGLALPQFFNNVSLHHHMQVMEEVVRRDKNHPAVVMWSVANEPASHLESAGYYLKMVIAHTKSLDPSRPVTFVSNSNYAADKGAPYVDVICLNSYYSWYHDYGHLELIQLQLATQFENWYKKYQKPIIQSEYGAEAIAGFHQDPPLMFTEEYQKSLLEQYHLGLDQKRRKYVVGELIWNFADFMTEQSPTRVLGNKKGIFTRQRQPKSAAFLLRERYWKIANETRYPHSVAKSQCLENSLFT",–,–,–,–,–,–,–,–,–,Enzymatic activity relative to wild-type human β-glucuronidase [5]: about 2.5 fold
"E2-20: human beta-glucuronidase variant L243Q, L255Q, T545G, SEQ ID NO: 10 (protein, Laboratory generated variant, E2-20, based upon the human beta-glucuronidase) AAQPALQGGMLYPQESPSRECKELDGLWSFRADFSDNRRRGFEEQWYRRPLWESGPTVDMPVPSSFNDISQDWRLRHFVGWVWYEREVILPERWTQDLRTRVVLRIGSAHSYAIVWVNGVDTLEHEGGYLPFEADISNLVQVGPLPSRLRITIAINNTLTPTTLPPGTIQYLTDTSKYPKGYFVQNTYFDFFNYAGLQRSVLLYTTPTTYIDDITVTTSVEQDSGQVNYQISVKGSNQFKLEVRLLDAENKVVANGTGTQGQLKVPGVSLWWPYLMHERPAYLYSLEVQLTAQTSLGPVSDFYTLPVGIRTVAVTKSQFLINGKPFYFHGVNKHEDADIRGKGFDWPLLVKDFNLLRWLGANAFRTSHYPYAEEVMQMCDRYGIVVIDECPGVGLALPQFFNNVSLHHHMQVMEEVVRRDKNHPAVVMWSVANEPASHLESAGYYLKMVIAHTKSLDPSRPVTFVSNSNYAADKGAPYVDVICLNSYYSWYHDYGHLELIQLQLATQFENWYKKYQKPIIQSEYGAEGIAGFHQDPPLMFTEEYQKSLLEQYHLGLDQKRRKYVVGELIWNFADFMTEQSPTRVLGNKKGIFTRQRQPKSAAFLLRERYWKIANETRYPHSVAKSQCLENSPFTSVD",–,–,–,–,6.7 ± 0.5,71 ± 3,38 ± 5,30 ± 5,116,"Km as compared to E1-G [6]: about a three-fold smaller Km; kcat/Km at pH 7.0, fold greater than kcat/Km of wild type at pH 4.5 ([6]; variant at pH 7.0 vs wild type at pH 4.5): about 2 fold"
"S28: human beta-glucuronidase variant Q518R, T545S, E595Y, T599F, SEQ ID NO: 9 (protein, Laboratory generated variant, S28, based upon the human beta-glucuronidase) AAQPALQGGMLYPQESPSRECKELDGLWSFRADFSDNRRRGFEEQWYRRPLWESGPTVDMPVPSSFNDISQDWRLRHFVGWVWYEREVILPERWTQDLRTRVVLRIGSAHSYAIVWVNGVDTLEHEGGYLPFEADISNLVQVGPLPSRLRITIAINNTLTPTTLPPGTIQYLTDTSKYPKGYFVQNTYFDFFNYAGLQRSVLLYTTPTTYIDDITVTTSVEQDSGLVNYQISVKGSNLFKLEVRLLDAENKVVANGTGTQGQLKVPGVSLWWPYLMHERPAYLYSLEVQLTAQTSLGPVSDFYTLPVGIRTVAVTKSQFLINGKPFYFHGVNKHEDADIRGKGFDWPLLVKDFNLLRWLGANAFRTSHYPYAEEVMQMCDRYGIVVIDECPGVGLALPQFFNNVSLHHHMQVMEEVVRRDKNHPAVVMWSVANEPASHLESAGYYLKMVIAHTKSLDPSRPVTFVSNSNYAADKGAPYVDVICLNSYYSWYHDYGHLELIRLQLATQFENWYKKYQKPIIQSEYGAESIAGFHQDPPLMFTEEYQKSLLEQYHLGLDQKRRKYVVGELIWNFADFMTYQSPFRVLGNKKGIFTRQRQPKSAAFLLRERYWKIANETRYPHSVAKSQCLENSPFTSVD",–,–,–,–,16 ± 3,79 ± 3,72 ± 24,26 ± 3,47,–
